Data from the supplement of paper PMC10307832.

Key:
Assay in all cases: relative viability (nuclei count vs DMSO), 5 days (fraction); higher = more cells survive
[1] = compound: C1=CC=C2C(=C1)C=CC(=C2SSC3=C(C=CC4=CC=CC=C43)O)O [IPA-3] + COc1cc2c(Oc3ccc(NC(=O)C4(C(=O)Nc5ccc(F)cc5)CC4)cc3F)ccnc2cc1OCCCN1CCOCC1 [Foretinib] (partner 0.25 µM)
How it was run: (§1)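 Relative viability equals treated-well nuclei counts divided by vehicle-well nuclei counts. Counts came from 4× images of lung cancer cell lines grown in 1536-well plates for 5 days after pin-tool dosing on the day after seeding. Dosing used one drug alone or a fixed anchor-drug dose plus five library-drug doses (not always all listed) in √10 steps, and values are medians of duplicate plates.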

[2] = compound: Cc1ccc(-n2nc(C(C)(C)C)cc2NC(=O)Nc2ccc(OCCN3CCOCC3)c3ccccc23)cc1 [Doramapimod] + Nc1nc2[nH]cc(CCc3ccc(C(=O)N[C@@H](CCC(=O)O)C(=O)O)cc3)c2c(=O)[nH]1 [Pemetrexed] (partner 0.2 µM)
How it was run: as §1

[3] = compound: Cn1c(Nc2ccc(C(F)(F)F)cc2)nc2cc(Oc3ccnc(-c4ncc(C(F)(F)F)[nH]4)c3)ccc21 [RAF265] + Cc1cc(Nc2cc(N3CCN(C)CC3)nc(Sc3ccc(NC(=O)C4CC4)cc3)n2)n[nH]1 [Tozasertib] (partner 0.1 µM)
How it was run: as §1

[4] = compound: Cn1c(Nc2ccc(C(F)(F)F)cc2)nc2cc(Oc3ccnc(-c4ncc(C(F)(F)F)[nH]4)c3)ccc21 [RAF265] + Nc1ncn([C@H]2C[C@H](O)[C@@H](CO)O2)c(=O)n1 [Decitabine] (partner 2 µM)
How it was run: as §1

| Cell Line | relative viability ([1]; first compound 0.2 µM) | relative viability ([1]; first compound 0.6325 µM) | relative viability ([1]; first compound 2 µM) | relative viability ([1]; first compound 6.325 µM) | relative viability ([1]; first compound 20 µM) | relative viability ([2]; first compound 0.02 µM) | relative viability ([2]; first compound 0.06325 µM) | relative viability ([2]; first compound 0.2 µM) | relative viability ([2]; first compound 0.6325 µM) | relative viability ([2]; first compound 2 µM) | relative viability ([3]; first compound 0.01 µM) | relative viability ([3]; first compound 0.03162 µM) | relative viability ([3]; first compound 0.1 µM) | relative viability ([3]; first compound 0.3162 µM) | relative viability ([3]; first compound 1 µM) | relative viability ([4]; first compound 0.01 µM) | relative viability ([4]; first compound 0.03162 µM) | relative viability ([4]; first compound 0.1 µM) | relative viability ([4]; first compound 0.3162 µM) | relative viability ([4]; first compound 1 µM) |
| --- | --- | --- | --- | --- | --- | --- | --- | --- | --- | --- | --- | --- | --- | --- | --- | --- | --- | --- | --- | --- |
| NCI-H2087 | 1.26 | 1.12 | 1.05 | 1.03 | 1.18 | 0.589 | 0.646 | 0.597 | 0.573 | 0.61 | 0.268 | 0.266 | 0.284 | 0.205 | 0.152 | 0.287 | 0.257 | 0.251 | 0.188 | 0.147 |
| NCI-H460 | 1.12 | 0.924 | 0.851 | 0.929 | 0.931 | 0.0629 | 0.0546 | 0.0497 | 0.0506 | 0.0521 | 0.446 | 0.468 | 0.628 | 0.445 | 0.293 | 0.505 | 0.458 | 0.567 | 0.499 | 0.48 |
| LOU-NH91 | 0.955 | 0.861 | 0.942 | 0.916 | 1.07 | 0.388 | 0.396 | 0.355 | 0.379 | 0.395 | 0.705 | 0.618 | 0.78 | 0.457 | 0.467 | 0.828 | 0.745 | 0.763 | 0.685 | 0.685 |
| NCI-H1651 | 0.981 | 0.717 | 0.967 | 0.952 | 1.04 | 0.576 | 0.731 | 0.594 | 0.658 | 0.595 | 0.744 | 0.718 | 0.731 | 0.703 | 0.426 | 0.675 | 0.632 | 0.424 | 0.589 | 0.54 |
| NCI-H441 | 1.14 | 1.2 | 0.79 | 0.837 | 1 | 0.252 | 0.244 | 0.251 | 0.268 | 0.268 | 0.715 | 0.69 | 0.667 | 0.475 | 0.36 | 0.25 | 0.227 | 0.22 | 0.278 | 0.214 |
